Structures are written as SMILES.

The target of this assay is hSTING(R232) (Homo sapiens, UniProt Q86WV6, H232R). The assay is described as follows: Luciferase reporter assay in HEK293T-hSTING-Luciferase cells, R232 (wild type) human STING. It is filed as cell-based. The settings on record: 20 hr stimulation, read-out: R232 human activity (EC50 range). The method, boiled down: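 After 20 hr compound stimulation of 5×10^5 cells, secreted luciferase in the supernatant was measured by luminescence; values are fold-induction over baseline and EC50. The line is a clonal HEK293T stably carrying a STING plasmid (pUNO-1) and a luciferase reporter under five tandem ISREs fused to an ISG54 promoter.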
hSTING(R232), sequence (Q86WV6 whole entry H232R, the tested form may be a part): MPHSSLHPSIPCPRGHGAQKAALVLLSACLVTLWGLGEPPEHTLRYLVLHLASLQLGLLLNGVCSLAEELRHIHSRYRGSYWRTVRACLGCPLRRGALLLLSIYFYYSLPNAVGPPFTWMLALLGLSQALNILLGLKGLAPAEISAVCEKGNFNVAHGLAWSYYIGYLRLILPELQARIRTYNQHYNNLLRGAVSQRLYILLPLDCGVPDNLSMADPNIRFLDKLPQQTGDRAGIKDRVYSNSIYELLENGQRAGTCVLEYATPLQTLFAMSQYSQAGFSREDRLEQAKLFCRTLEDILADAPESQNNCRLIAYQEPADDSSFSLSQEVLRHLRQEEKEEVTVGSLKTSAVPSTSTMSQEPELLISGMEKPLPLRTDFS
`CC1c2ccc(C(=O)NCc3c(F)cc(F)cc3F)cc2N(Cc2c(O)cccc2F)C(=O)N1C` (centres unmarked) [Example 160, 1-(2-fluoro-6-hydroxybenzyl)-3,4-dimethyl-2-oxo-N-(2,4,6-trifluorobenzyl)-1,2,3,4-tetrahydroquinazoline-7-carboxamide]: the EC50 was less than 1 µM.
`C[C@H]1c2ccc(C(=O)NCc3c(F)cc(F)cc3F)cc2N(Cc2c(F)ccc(C(=O)O)c2F)C(=O)N1C` [Example 142, (S)-3-((3,4-Dimethyl-2-oxo-7-((2,4,6-trifluorobenzyl)carbamoyl)-3,4-dihydroquinazolin-1(2H)-yl)methyl)-2,4-difluorobenzoic acid]: the EC50 is more than 10 µM.
For `C[C@H]1c2ccc(C(=O)NCc3c(F)cc(F)cc3F)cc2N(Cc2c(Cl)c[nH]c(=O)c2F)C(=O)N1C` [Example 287, (S)-1-((5-chloro-3-fluoro-2-oxo-1,2-dihydropyridin-4-yl)methyl)-3,4-dimethyl-2-oxo-N-(2,4,6-trifluorobenzyl)-1,2,3,4-tetrahydroquinazoline-7-carboxamide], the EC50 is more than 10 µM.
For the compound `CC1c2ccc(C(=O)NCc3ccc(OCC(=O)O)cc3)cc2N(Cc2c(F)cccc2Cl)C(=O)N1C` (centres unmarked) [Example 240, 2-(4-((1-(2-chloro-6-fluorobenzyl)-3,4-dimethyl-2-oxo-1,2,3,4-tetrahydroquinazoline-7-carboxamido)methyl)phenoxy)acetic acid], the EC50 was more than 10 µM.
To `C[C@H]1c2ccc(C(=O)NCc3c(F)cc(F)cc3F)cc2N(Cc2c(Cl)cn(CCO)c(=O)c2F)C(=O)N1C` [Example 297, (S)-1-((5-chloro-3-fluoro-1-(2-hydroxyethyl)-2-oxo-1,2-dihydropyridin-4-yl)methyl)-3,4-dimethyl-2-oxo-N-(2,4,6-trifluorobenzyl)-1,2,3,4-tetrahydroquinazoline-7-carboxamide] belongs more than 10 µM.
For `CC1c2ccc(C(=O)NCc3c(F)cc(F)cc3F)cc2N(Cc2ccncc2F)C(=O)N1C` (centres unmarked) [Example 211, 1-((3-fluoropyridin-4-yl)methyl)-3,4-dimethyl-2-oxo-N-(2,4,6-trifluorobenzyl)-1,2,3,4-tetrahydroquinazoline-7-carboxamide], the EC50 was less than 1 µM.
Regarding `CN1Cc2ccc(C(=O)NCc3cc4cc(N)ccc4o3)cc2N(Cc2c(F)cccc2Cl)C1=O` [Example 58, N-((5-aminobenzofuran-2-yl)methyl)-1-(2-chloro-6-fluorobenzyl)-3-methyl-2-oxo-1,2,3,4-tetrahydroquinazoline-7-carboxamide], the EC50 is more than 10 µM.
Then `CC1c2ccc(C(=O)NCc3c(F)cc(F)cc3F)cc2N(Cc2c(F)cccc2Cl)C(=O)N1C` (racemic) [Example 74, 1-(2-chloro-6-fluorobenzyl)-3,4-dimethyl-2-oxo-N-(2,4,6-trifluorobenzyl)-1,2,3,4-tetrahydroquinazoline-7-carboxamide], with less than 1 µM.
To `C[C@H]1c2ccc(C(=O)NCc3ccc(F)cc3OCCO)cc2N(Cc2c(F)cccc2Cl)C(=O)N1C` [Example 284, (S)-1-(2-chloro-6-fluorobenzyl)-N-(4-fluoro-2-(2-hydroxyethoxy)benzyl)-3,4-dimethyl-2-oxo-1,2,3,4-tetrahydroquinazoline-7-carboxamide] belongs more than 10 µM.
Then `CN1Cc2ccc(C(=O)NCc3c(F)cc(F)cc3F)cc2N(Cc2cn(C)cn2)C1=O` [Example 37, 3-methyl-1-((1-methyl-1H-imidazol-4-yl)methyl)-2-oxo-N-(2,4,6-trifluorobenzyl)-1,2,3,4-tetrahydroquinazoline-7-carboxamide], with more than 10 µM; and `CC1c2ccc(C(=O)NCc3c(F)cc(F)cc3F)cc2N(Cc2ccccc2)C(=O)N1C` (centres unmarked) [Example 190, 1-benzyl-3,4-dimethyl-2-oxo-N-(2,4,6-trifluorobenzyl)-1,2,3,4-tetrahydroquinazoline-7-carboxamide], with less than 1 µM.
In the case of `CC1NC(=O)N(Cc2c(F)cccc2Cl)c2cc(C(=O)NCc3c(F)cc(F)cc3F)ccc21` (centres unmarked) [Example 189, 1-(2-chloro-6-fluorobenzyl)-4-methyl-2-oxo-N-(2,4,6-trifluorobenzyl)-1,2,3,4-tetrahydroquinazoline-7-carboxamide], the EC50 was in the range of 1 to 10 µM.
Take `Cc1nn(C)c(CN2C(=O)N(C)Cc3ccc(C(=O)NCc4c(F)cc(F)cc4F)cc32)c1Br` [Example 67, 1-((4-bromo-1,3-dimethyl-1H-pyrazol-5-yl)methyl)-3-methyl-2-oxo-N-(2,4,6-trifluorobenzyl)-1,2,3,4-tetrahydroquinazoline-7-carboxamide]: the EC50 lay within 1 to 10 µM.
Then `Cc1ccc(F)c(CN2C(=O)N(C)C(C)c3ccc(C(=O)NCc4c(F)cc(F)cc4F)cc32)c1Br` (centres unmarked) [Example 220, 1-(2-bromo-6-fluoro-3-methylbenzyl)-3,4-dimethyl-2-oxo-N-(2,4,6-trifluorobenzyl)-1,2,3,4-tetrahydroquinazoline-7-carboxamide], with less than 1 µM; and `COc1cccc(F)c1CN1C(=O)N(C)C(C)c2ccc(C(=O)NCc3c(F)cc(F)cc3F)cc21` (centres unmarked) [Example 155, 1-(2-fluoro-6-methoxybenzyl)-3,4-dimethyl-2-oxo-N-(2,4,6-trifluorobenzyl)-1,2,3,4-tetrahydroquinazoline-7-carboxamide], with 1 to 10 µM.
`CN1Cc2ccc(C(=O)NCc3ccc4cnn(C)c4c3)cc2N(Cc2c(F)cccc2Cl)C1=O` [Example 51, 1-(2-chloro-6-fluorobenzyl)-3-methyl-N-((1-methyl-1H-indazol-6-yl)methyl)-2-oxo-1,2,3,4-tetrahydroquinazoline-7-carboxamide]: the EC50 was more than 10 µM.
To `C[C@H]1c2ccc(C(=O)NCc3c(O)cccc3F)cc2N(Cc2c(F)cccc2Cl)C(=O)N1C` [Example 251, (S)-1-(2-chloro-6-fluorobenzyl)-N-(2-fluoro-6-hydroxybenzyl)-3,4-dimethyl-2-oxo-1,2,3,4-tetrahydroquinazoline-7-carboxamide] belongs 1 to 10 µM.
To `C[C@H]1c2ccc(C(=O)NCc3ccc(F)cc3OP(=O)(O)O)cc2N(Cc2c(F)cccc2Cl)C(=O)N1C` [Example 93, (S)-2-((1-(2-chloro-6-fluorobenzyl)-3,4-dimethyl-2-oxo-1,2,3,4-tetrahydroquinazoline-7-carboxamido)methyl)-5-fluorophenyl dihydrogen phosphate] belongs less than 1 µM; to `COc1cc(F)ccc1CN1C(=O)N(C)Cc2ccc(C(=O)NCc3c(F)cc(F)cc3F)cc21` [Example 46, l-(4-fluoro-2-methoxybenzyl)-3-methyl-2-oxo-N-(2,4,6-trifluorobenzyl)-1,2,3,4-tetrahydroquinazoline-7-carboxamide], 1 to 10 µM; to `CN1Cc2ccc(C(=O)NCCn3cncn3)cc2N(Cc2c(F)cccc2Cl)C1=O` [Example 26, N-(2-(1H-1,2,4-triazol-l-yl)ethyl)-1-(2-chloro-6-fluorobenzyl)-3-methyl-2-oxo-1,2,3,4-tetrahydroquinazoline-7-carboxamide], more than 10 µM.
To `CC1c2ccc(C(=O)NCc3c(F)cc(F)cc3F)cc2N(Cc2c(F)cccc2NS(C)(=O)=O)C(=O)N1C` (centres unmarked) [Example 225, 1-(2-fluoro-6-(methylsulfonamido)benzyl)-3,4-dimethyl-2-oxo-N-(2,4,6-trifluorobenzyl)-1,2,3,4-tetrahydroquinazoline-7-carboxamide] belongs 1 to 10 µM; to `COc1cccc(F)c1CNC(=O)c1ccc2c(c1)N(Cc1c(F)cccc1Cl)C(=O)N(C)[C@H]2C` [Example 245, (S)-1-(2-chloro-6-fluorobenzyl)-N-(2-fluoro-6-methoxybenzyl)-3,4-dimethyl-2-oxo-1,2,3,4-tetrahydroquinazoline-7-carboxamide], 1 to 10 µM; to `CN1Cc2ccc(C(=O)NCc3c(F)cc(F)cc3F)cc2N(Cc2cn(C)nn2)C1=O` [Example 55, 3-methyl-1-((1-methyl-1H-1,2,3-triazol-4-yl)methyl)-2-oxo-N-(2,4,6-trifluorobenzyl)-1,2,3,4-tetrahydroquinazoline-7-carboxamide], more than 10 µM.
As for `CN1Cc2ccc(C(=O)NCc3c(F)cc(F)cc3F)cc2N(Cc2cnsn2)C1=O` [Example 35, l-((l,2,5-thiadiazol-3-yl)methyl)-3-methyl-2-oxo-N-(2,4,6-trifluorobenzyl)-1,2,3,4-tetrahydroquinazoline-7-carboxamide], the EC50 was more than 10 µM.
To `COc1cccc(CNC(=O)c2ccc3c(c2)N(Cc2c(F)cccc2Cl)C(=O)N(C)[C@H]3C)c1F` [Example 249, (S)-1-(2-chloro-6-fluorobenzyl)-N-(2-fluoro-3-methoxybenzyl)-3,4-dimethyl-2-oxo-1,2,3,4-tetrahydroquinazoline-7-carboxamide] belongs 1 to 10 µM.
To `CN1Cc2ccc(C(=O)NCc3cc4cc(F)ccc4o3)cc2N(Cc2c(F)cccc2Cl)C1=O` [Example 24, 1-(2-chloro-6-fluorobenzyl)-N-((5-fluorobenzofuran-2-yl)methyl)-3-methyl-2-oxo-1,2,3,4-tetrahydroquinazoline-7-carboxamide] belongs 1 to 10 µM; to `CN1Cc2ccc(C(=O)NCc3c(F)cc(F)cc3F)cc2N(Cc2ccccc2F)C1=O` [Example 12, 1-(2-fluorobenzyl)-3-methyl-2-oxo-N-(2,4,6-trifluorobenzyl)-1,2,3,4-tetrahydroquinazoline-7-carboxamide], less than 1 µM; to `COc1cc(F)ccc1CNC(=O)c1ccc2c(c1)N(Cc1c(F)cccc1Cl)C(=O)N(C)[C@H]2C` [Example 247, (S)-1-(2-chloro-6-fluorobenzyl)-N-(4-fluoro-2-methoxybenzyl)-3,4-dimethyl-2-oxo-1,2,3,4-tetrahydroquinazoline-7-carboxamide], 1 to 10 µM.
To `COc1cccc(CN2C(=O)N(C)Cc3ccc(C(=O)NCc4c(F)cc(F)cc4F)cc32)c1F` [Example 63, 1-(2-fluoro-3-methoxybenzyl)-3-methyl-2-oxo-N-(2,4,6-trifluorobenzyl)-1,2,3,4-tetrahydroquinazoline-7-carboxamide] belongs 1 to 10 µM.

(Values after patent US11571423B2, “Small molecule modulators of human sting” (Curadev Pharma Limited, priority 2017, dated 2023).)
